Biological target: T1, RNR (RNR1:RNR2 1:1) (Homo sapiens, UniProt P23921)
T1 sequence (P23921 1-792): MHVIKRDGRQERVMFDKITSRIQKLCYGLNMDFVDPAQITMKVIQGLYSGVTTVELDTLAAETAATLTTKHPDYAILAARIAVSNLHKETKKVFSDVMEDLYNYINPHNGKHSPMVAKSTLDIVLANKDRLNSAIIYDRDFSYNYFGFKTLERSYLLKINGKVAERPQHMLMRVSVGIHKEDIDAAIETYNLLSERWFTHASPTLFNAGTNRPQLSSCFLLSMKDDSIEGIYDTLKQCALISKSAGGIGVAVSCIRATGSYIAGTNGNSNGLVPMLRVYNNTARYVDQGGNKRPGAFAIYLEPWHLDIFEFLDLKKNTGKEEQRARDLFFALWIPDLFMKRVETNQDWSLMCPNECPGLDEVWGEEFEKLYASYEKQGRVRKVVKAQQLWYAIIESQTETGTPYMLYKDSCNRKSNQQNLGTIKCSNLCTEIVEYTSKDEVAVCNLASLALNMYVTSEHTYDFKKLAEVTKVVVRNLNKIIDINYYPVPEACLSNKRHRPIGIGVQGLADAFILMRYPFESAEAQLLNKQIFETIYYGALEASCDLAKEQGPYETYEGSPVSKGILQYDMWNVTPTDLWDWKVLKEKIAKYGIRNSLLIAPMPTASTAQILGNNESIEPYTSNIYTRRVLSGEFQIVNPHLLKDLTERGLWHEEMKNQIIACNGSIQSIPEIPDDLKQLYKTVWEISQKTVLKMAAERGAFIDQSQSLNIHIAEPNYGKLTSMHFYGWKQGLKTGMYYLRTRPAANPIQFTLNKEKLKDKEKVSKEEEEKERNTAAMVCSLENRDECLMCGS
Assay: RNR enzyme activity, rapid-fire mass spectrometry (RFMS) assay
Assay type: biochemical
Settings: RNR 50 nM, CDP 5 μM, ATP 1 mM, 37° C., 45 min, compounds screened up to 50 μM, read-out: RF/MS IC50
Outline: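 Human RNR1:RNR2 (1:1, 50 nM) pre-incubated 15 min at room temperature with compound, then reacted with 5 μM CDP and 1 mM ATP, no NADPH, for 45 min at 37 °C. Stopped with 6% HCOOH; turnover read by rapid-fire mass spectrometry; Triapine and hydroxyurea as reference compounds.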

Row | IC50 [nM] | Structure (SMILES)
1 | 1000 to 10000 | COC1CCN(S(=O)(=O)N[C@H](c2n[nH]c(=O)o2)[C@@H](C)c2c(F)ccc(C)c2C)CC1 [Example 126, N-((1S,2S)-2-(6-fluoro-2,3-dimethylphenyl)-1-(5-oxo-4,5-dihydro-1,3,4-oxadiazol-2-yl)propyl)-4-methoxypiperidine-1-sulfonamide]
2 | 100 to 1000 | Cc1ccc(F)c([C@@H](C)[C@H](NS(=O)(=O)N2CCC(C)CC2)c2n[nH]c(=O)o2)c1C [Example 115, N-((1S,2R)-2-(6-fluoro-2,3-dimethylphenyl)-1-(5-oxo-4,5-dihydro-1,3,4-oxadiazol-2-yl)propyl)-4-methylpiperidine-1-sulfonamide]
3 | 1000 to 10000 | COCC1CCN(S(=O)(=O)N[C@H](c2n[nH]c(=O)o2)[C@@H](C)c2c(F)ccc(C)c2C)CC1 [Example 128, N-((1S,2S)-2-(6-fluoro-2,3-dimethylphenyl)-1-(5-oxo-4,5-dihydro-1,3,4-oxadiazol-2-yl)propyl)-4-(methoxymethyl)piperidine-1-sulfonamide]
4 | 1000 to 10000 | Cc1ccc(F)c(C(C)[C@H](NS(=O)(=O)N2CCC(NC(=O)C(C)(C)C)CC2)c2n[nH]c(=O)o2)c1C (stereo partly drawn) [Example 75, N-(1-(N-((1S)-2-(6-fluoro-2,3-dimethylphenyl)-1-(5-oxo-4,5-dihydro-1,3,4-oxadiazol-2-yl)propyl)sulfamoyl)piperidin-4-yl)pivalamide]
5 | 100 to 1000 | Cc1ccc(F)c(C(C)[C@H](NS(=O)(=O)N2CCCCC2)c2n[nH]c(=O)o2)c1C (stereo partly drawn) [Example 138, N-((1S)-2-(6-fluoro-2,3-dimethylphenyl)-1-(5-oxo-4,5-dihydro-1,3,4-oxadiazol-2-yl)propyl)piperidine-1-sulfonamide]
6 | 100 to 1000 | Cc1ccc(F)c(C(C)[C@H](NS(=O)(=O)N2CCC(C#N)CC2)c2n[nH]c(=O)o2)c1C (stereo partly drawn) [Example 123, 4-cyano-N-((1S)-2-(6-fluoro-2,3-dimethylphenyl)-1-(5-oxo-4,5-dihydro-1,3,4-oxadiazol-2-yl)propyl)piperidine-1-sulfonamide]
7 | 100 to 1000 | COC1CCN(S(=O)(=O)N[C@H](c2n[nH]c(=O)o2)[C@H](C)c2c(F)ccc(C)c2C)CC1 [Example 125, N-((1S,2R)-2-(6-fluoro-2,3-dimethylphenyl)-1-(5-oxo-4,5-dihydro-1,3,4-oxadiazol-2-yl)propyl)-4-methoxypiperidine-1-sulfonamide]
8 | 1000 to 10000 | Cc1ccc(F)c([C@H](C)[C@H](NS(=O)(=O)N2CCC(C)(C#N)CC2)c2n[nH]c(=O)o2)c1C [Example 82, 4-cyano-N-((1S,2S)-2-(6-fluoro-2,3-dimethylphenyl)-1-(5-oxo-4,5-dihydro-1,3,4-oxadiazol-2-yl)propyl)-4-methylpiperidine-1-sulfonamide]

More lines, now with the values behind:

Row | Structure (SMILES) | IC50 [nM]
9 | Cc1ccc(F)c([C@@H](C)[C@H](NS(=O)(=O)N2CCCc3ccccc32)c2n[nH]c(=O)o2)c1C [Example 109, N-((1S,2R)-2-(6-fluoro-2,3-dimethylphenyl)-1-(5-oxo-4,5-dihydro-1,3,4-oxadiazol-2-yl)propyl)-3,4-dihydroquinoline-1(2H)-sulfonamide] | 1000 to 10000
10 | Cc1ccc(F)c([C@@H](C)[C@H](NS(=O)(=O)N2CCC(C)(C#N)CC2)c2n[nH]c(=O)o2)c1C [Example 81, 4-cyano-N-((1S,2R)-2-(6-fluoro-2,3-dimethylphenyl)-1-(5-oxo-4,5-dihydro-1,3,4-oxadiazol-2-yl)propyl)-4-methylpiperidine-1-sulfonamide] | 100 to 1000
11 | Cc1ccc(F)c(C(C)[C@H](NS(=O)(=O)N2CCC(O)(C(F)(F)F)CC2)c2n[nH]c(=O)o2)c1C (stereo partly drawn) [Example 89, N-((1S)-2-(6-fluoro-2,3-dimethylphenyl)-1-(5-oxo-4,5-dihydro-1,3,4-oxadiazol-2-yl)propyl)-4-hydroxy-4-(trifluoromethyl)piperidine-1-sulfonamide] | 100 to 1000
12 | Cc1ccc(F)c(C(C)[C@H](NS(=O)(=O)N2CCCC(C#N)C2)c2n[nH]c(=O)o2)c1C (stereo partly drawn) [Example 26, 3-cyano-N-((1S)-2-(6-fluoro-2,3-dimethylphenyl)-1-(5-oxo-4,5-dihydro-1,3,4-oxadiazol-2-yl)propyl)piperidine-1-sulfonamide] | 1000 to 10000
13 | Cc1ccc(F)c([C@H](C)[C@H](NS(=O)(=O)N2CCC(Oc3ccccc3)CC2)c2n[nH]c(=O)o2)c1C [Example 54, N-((1S,2S)-2-(6-fluoro-2,3-dimethylphenyl)-1-(5-oxo-4,5-dihydro-1,3,4-oxadiazol-2-yl)propyl)-4-phenoxypiperidine-1-sulfonamide] | 10000 to 100000
14 | Cc1ccc(F)c([C@@H](C)[C@H](NS(=O)(=O)N2CCC(Oc3ccccc3)CC2)c2n[nH]c(=O)o2)c1C [Example 55, N-((1S,2R)-2-(6-fluoro-2,3-dimethylphenyl)-1-(5-oxo-4,5-dihydro-1,3,4-oxadiazol-2-yl)propyl)-4-phenoxypiperidine-1-sulfonamide] | 100 to 1000
15 | Cc1ccc(F)c([C@@H](C)[C@H](NS(=O)(=O)N2C3CCC2CC(F)(F)C3)c2n[nH]c(=O)o2)c1C [Example 110, 3,3-difluoro-N-((1S,2R)-2-(6-fluoro-2,3-dimethylphenyl)-1-(5-oxo-4,5-dihydro-1,3,4-oxadiazol-2-yl)propyl)-8-azabicyclo[3.2.1]octane-8-sulfonamide] | 100 to 1000
16 | Cc1ccc(F)c(C(C)[C@H](NS(=O)(=O)N2CCC(CN3CCCCC3)CC2)c2n[nH]c(=O)o2)c1C (stereo partly drawn) [Example 62, N-((1S)-2-(6-fluoro-2,3-dimethylphenyl)-1-(5-oxo-4,5-dihydro-1,3,4-oxadiazol-2-yl)propyl)-4-(piperidin-1-ylmethyl)piperidine-1-sulfonamide] | 10000 to 100000
17 | Cc1ccc(F)c([C@@H](C)[C@H](NS(=O)(=O)N2CCC3(CC2)OCCCO3)c2n[nH]c(=O)o2)c1C [Example 85, N-((1S,2R)-2-(6-fluoro-2,3-dimethylphenyl)-1-(5-oxo-4,5-dihydro-1,3,4-oxadiazol-2-yl)propyl)-1,5-dioxa-9-azaspiro[5.5]undecane-9-sulfonamide] | 100 to 1000
18 | Cc1ccc(F)c([C@@H](C)[C@H](NS(=O)(=O)N2CCc3cc(Cl)ccc3C2)c2n[nH]c(=O)o2)c1C [Example 107, 6-chloro-N-((1S,2R)-2-(6-fluoro-2,3-dimethylphenyl)-1-(5-oxo-4,5-dihydro-1,3,4-oxadiazol-2-yl)propyl)-3,4-dihydroisoquinoline-2(1H)-sulfonamide] | 100 to 1000
19 | Cc1ccc(F)c([C@@H](C)[C@H](NS(=O)(=O)N2CCCC(C(C)O)C2)c2n[nH]c(=O)o2)c1C (mixture of isomers) [Example 27, rac-N-((1R,2S)-2-(6-fluoro-2,3-dimethylphenyl)-1-(5-oxo-4,5-dihydro-1,3,4-oxadiazol-2-yl)propyl)-3-(1-hydroxyethyl)piperidine-1-sulfonamide] | 100 to 1000
20 | Cc1ccc(F)c(C(C)[C@H](NS(=O)(=O)N2CCCC(C(C)C)C2)c2n[nH]c(=O)o2)c1C (stereo partly drawn) [Example 24, N-((1S)-2-(6-fluoro-2,3-dimethylphenyl)-1-(5-oxo-4,5-dihydro-1,3,4-oxadiazol-2-yl)propyl)-3-isopropylpiperidine-1-sulfonamide] | 100 to 1000
21 | Cc1ccc(F)c(C(C)[C@H](NS(=O)(=O)N2CC3C(C2)C3(F)F)c2n[nH]c(=O)o2)c1C (stereo partly drawn) [Example 106, 6,6-difluoro-N-((1S)-2-(6-fluoro-2,3-dimethylphenyl)-1-(5-oxo-4,5-dihydro-1,3,4-oxadiazol-2-yl)propyl)-3-azabicyclo[3.1.0]hexane-3-sulfonamide] | 100 to 1000

From patent US20240425490A1, “SULFAMIDE RIBONUCLEOTIDE REDUCTASE (RNR) INHIBITORS AND USES THEREOF” (Boundless Bio, Inc., priority 2021, published 2024)
